According to publication PMC8018184, “Evaluation of the Pharmacophoric Role of the O–O Bond in Synthetic Antileishmanial Compounds: Comparison between 1,2-Dioxanes and Tetrahydropyrans” (Journal of Medicinal Chemistry, 2020):
Several values for one entry are separate records, joined by “and”; a condition that tells them apart may be missing. Identical values can stand only once.

Tests used:
[1] = system: amastigotes of L. donovani; set-up: method as in PMID 30908481; conditions: cited from earlier work
[2] = system: promastigotes of L. donovani; set-up: method as in PMID 30878827; conditions: in vitro; cited from earlier work
[3] = system: L. donovani promastigotes (MHOM/NP/02/BPK282/0cl4); test: Promastigote growth inhibition assay (alamarBlue); type: cell-based, Leishmania donovani; conditions: for IC50: Leishmania donovani, 72 h, alamarBlue, HOMEM 20% FBS, compounds as racemates, read-out: IC50 (concentration causing 50% growth inhibition) against promastigotes of L. donovani
Procedure: The bioactivity of the new tetrahydropyrans 3 was initially evaluated against the extracellular promastigote forms of L. donovani (MHOM/NP/02/BPK282/0cl4) as the reference strain, indicative of the leishmaniasis in the Old World. The results were expressed as IC50, i.e., the concentration of the product required to inhibit the parasite growth by 50%. When a compound could inhibit the promastigote growth, its cytotoxicity was also evaluated on Vero cells (Table 1) and on THP-1 cells (see the Supporting Information, Table S3) and the corresponding selectivity indexes (SIs) were calculated. The performance of each tetrahydropyran 3 was compared with that of the corresponding endoperoxide 2 (Table 1).
Promastigotes of a L. donovani reference strain (MHOM/NP/02/BPK282/0cl4) were maintained at 26 °C in a liquid custom-made medium, HOMEM Cat. no: 1140-082 (Gibco Thermo Fisher Scientific Inc., Waltham, USA), complete composition: S-MEM (Eagle) 1 × 1 liter pack, glucose (1–2 g), sodium bicarbonate (0.3 g), sodium pyruvate (0.11 g), p-aminobenzoic acid (1 mg), biotin (0.1 mg), HEPES (4.77–5.96 g), MEM amino acids (10 mL), MEM nonessential amino acids (10 mL), pH 7.5–7.6, supplemented with 20% fetal bovine serum (FBS, EuroClone SpA, Milan, Italy)[123] and 1% penicillin–streptomycin (EuroClone SpA).
To evaluate the efficacy of the compounds on the extracellular forms of L. donovani, promastigotes in their late log/stationary phase were seeded with the complete HOMEM medium at 10^6 cells mL^–1 in 96-well plates and incubated with tested compounds at a range concentration of 600–1.6 μM in a 26 °C incubator for 72 h. The antileishmanial drug amphotericin B was used as the positive control, and untreated promastigotes were the negative control. Each experiment was performed in duplicate. Stock solution of the compounds was 8 mM in DMSO. […] The alamarBlue assay includes a colorimetric growth indicator based on detection of metabolic activity. Specifically, the system incorporates an oxidation–reduction (REDOX) indicator that changes color in response to chemical reduction of the growth medium resulting from cell growth. The method monitors the reducing environment of proliferating cells; the cell-permeable resazurin is added (nonfluorescent form, blue color) and, upon entering cells, is reduced to resorufin (fluorescent form, red color) as a result of cellular metabolic activity. Evaluation was performed by adding 20 μL of alamarBlue and incubating at 26 °C for 24 h. The reducing environment was evaluated after 24 h by absorbance measurement at the Multiskan ascent plate reader (Thermo Fisher Scientific Inc.) at 550 and 630 nm.

[4] = system: promastigotes of Leishmania donovani strains; set-up: method as in earlier work; conditions: Figure 1, cited from earlier work; for IC50: read-out: IC50 on promastigotes of L. donovani strains
[5] = system: intramacrophage amastigotes of L. donovani; test: Amastigote growth inhibition assay in infected THP-1 cells (Giemsa, infectivity index); type: cell-based, Leishmania donovani; conditions: for IC50: Leishmania donovani, intracellular amastigotes in THP-1, 72 h, read-out: IC50 against amastigotes of L. donovani
Procedure: To evaluate the efficacy of the compounds on the intracellular form of L. donovani, human acute monocytic leukemia cell line (THP-1) was infected with L. donovani promastigotes. Cells were harvested and seeded in a 96-well plate (10^5 cells mL^–1) in the complete RPMI 1640 medium, and PMA (0.1 μM, Cayman Chemical Company, Ann Arbor, Michigan, USA) was added for obtaining maturation and cell adherence. Cells were incubated at 37 °C in a 5% CO2 incubator. After 48 h, the medium was replaced with the fresh medium containing stationary-phase promastigotes that were then phagocyted by monocytic cells and transformed into intracellular amastigotes. After 24 h of incubation, newly synthesized compounds were added and the plates were incubated at 37 °C in a 5% CO2 incubator for 72 h. After incubation, wells were washed, fixed, and stained with Giemsa. Staining was detected using a Nikon Eclipse E200 light microscope (Nikon, Tokyo, Japan). The infectivity index (% of infected macrophages × average number of amastigotes per macrophage) was determined by counting at least 100 cells in duplicate cultures.

[6] = Cytotoxicity test on Vero cells (alamarBlue); type: cell-based, African green monkey; conditions: African green monkey
Procedure: Vero cells (kidney of African green monkey epithelial cell line) were cultured at 37 °C in the MEM liquid medium supplemented with 10% FBS (EuroClone SpA), 1% levoglutamine (EuroClone SpA), and 1% penicillin–streptomycin (EuroClone SpA). THP-1 cells (human leukemia monocytic cell line) were cultured at 37 °C in the RPMI 1640 (EuroClone SpA) liquid medium supplemented with 10% FBS (EuroClone SpA), 1% levoglutamine (EuroClone SpA), 1% penicillin–streptomycin, and mercaptoethanol (Gibco) 50 μM.
The cytotoxicity of the compounds was determined using mammalian kidney epithelial cells (Vero cell line) and human acute monocytic leukemia cell line (THP-1). Cells were seeded (10^5 cells mL^–1) on 96-well plates with the complete MEM medium and incubated with test compounds at 37 °C in a 5% CO2 incubator. After 72 h of incubation, 20 μL of the alamarBlue reagent was added to each well and incubated at 37 °C for 24 h. Reduction of resazurin to resorufin was evaluated after 24 h by absorbance measurement at the Multiskan ascent plate reader (Thermo Fisher Scientific Inc.,) at 550 and 630 nm. […] Each experiment was performed in duplicate.

Leishmania promastigotes = system: Leishmania promastigotes; set-up: method as in PMID 27867026, PMID 17339374; conditions: Figure 3; cited from earlier work
[7] = system: intracellular amastigotes of L. infantum; set-up: method as in PMID 26014947; conditions: in vitro; cited from earlier work
[8] = system: promastigotes of L. infantum; set-up: method as in PMID 26014947; conditions: in vitro; cited from earlier work

6-(1,2,6,7-tetraoxaspiro[7.11]nonadec-4-yl) hexan-1-ol [N-251]
IC50 [1]: 6.7 µM

CCCCC1(CCCC)CC(CNCCCn2ccnc2)C(C)(OC)OO1 (stereo not drawn) [3,4-cis 2a]
IC50 [2]: 5.5 µM

CCCCC1(CCCC)CC(CNCCCn2ccnc2)C(C)(OC)OO1 (stereo not drawn) [3,4-trans 2a]
IC50 [2]: 4 µM

C[C@@H]1[C@H](O)[C@@H](C)/C=C/C=C/C=C/C=C/C=C/C=C/C=C/[C@H](O[C@@H]2O[C@H](C)[C@@H](O)[C@H](N)[C@@H]2O)C[C@@H]2O[C@](O)(C[C@@H](O)C[C@@H](O)[C@H](O)CC[C@@H](O)C[C@@H](O)CC(=O)O[C@H]1C)C[C@H](O)[C@H]2C(=O)O [Amphotericin B, reference compound]
IC50 [3]: 0.3 µM
Selectivity index (SI) = CC50/IC50 ([3]; Vero CC50 / IC50 on promastigotes): 666.7
IC50 [4]: 0.03 to 2.8 µM
IC50 [5]: 0.07 µM
Selectivity index (SI) = CC50/IC50 ([5]; Vero CC50 / IC50 on amastigotes): 2857.1
CC50 at 72 h [6]: 200 µM

C[C@@H]1CC[C@H]2[C@@H](C)C(=O)O[C@@H]3O[C@@]4(C)CC[C@@H]1[C@]32OO4 [Artemisinin, reference compound]
IC50 [3]: > 40 µM
IC50 (Leishmania promastigotes): 30.8 µM
IC50 [5]: > 40 µM

COc1ccc(N[C@@]2(C(F)(F)F)O[C@@H]3C[C@@]4(C)C[C@H]5[C@H](C)CC[C@@H]([C@H]2C)[C@@]35OO4)cc1 [BB201]
IC50 (Leishmania promastigotes): 0.38 to 1.5 µM

C=CCO[C@@]1(C(F)(F)F)O[C@@H]2C[C@@]3(C)C[C@H]4[C@H](C)CC[C@@H]([C@H]1C)[C@@]24OO3 [BB241]
IC50 (Leishmania promastigotes): 1.6 to 6.3 µM

O=C1CCC2(CC1)OOC1(O2)C2CC3CC(C2)CC1C3 (stereo not shown) [LC50]
IC50 [7]: 79.8 to 108 µM

NCC1CC[C@]2(CC1)OO[C@]1(O2)C2CC3CC(C2)CC1C3 (stereo partly shown) [LC95]
IC50 [8]: 3.5 µM and 3.5 to 9.4 µM
IC50 [7]: 79.8 to 108 µM

NC[C@@H]1O[C@H](O[C@H]2[C@@H](O)[C@H](O[C@@H]3[C@@H](O)[C@H](N)C[C@H](N)[C@H]3O[C@H]3O[C@H](CO)[C@@H](O)[C@H](O)[C@H]3N)O[C@@H]2CO)[C@H](N)[C@@H](O)[C@@H]1O [Paromomycin]
IC50 [4]: 19.7 to 28.1 µM

O.O.O.O.O.O.O.O.O.O=C([O-])[C@@H]1[O][Sb](=[O])([O][Sb]2(=[O])[O][C@H]([C@H](O)CO)[C@H](O)[C@H](C(=O)[O-])[O]2)[O][C@H]([C@H](O)CO)[C@@H]1O.[Na+].[Na+].[Na+] (stereo partly shown) [Sodium stibogluconate]
IC50 on promastigotes of L. donovani strains [4]: 8.8 to 22.0 µg/mL
